Key:
Format in all cases: cell-based
[1] = tested on: vaginal secretion specimen of a patient suffering from typical bacterial vaginosis; assay: Experiment Example 3: pH of culture samples (production of acids); conditions: 2.5% saccharide, 1.0% yeast extract, 1.6% xanthan gum, pH 6.2, candle jar, 37° C.
Method: (§1) • (1) The preparation of the compositions: Maltose and sucrose were used respectively to prepare the following composition according to the methods mentioned above: • A. 2.5% maltose, 1.0% yeast extract, 1.6% xanthan gum, pH adjusted to 6.2; • B. 2.5% sucrose, 1.0 yeast extract, 1.6% xanthan gum, pH adjusted to 6.2; • (2) The preparation of the test tubes: Compositions as prepared above were filled into the test tubes, with each tube containing 5 ml, sterilized, and kept until use for experiment. • (3) Specimen suspension: Vaginal secretion was taken from one of the patients suffering from typical bacterial vaginosis with a cotton swab, then the swab was washed in 2 ml sterilized Trypcase-soy Broth immediately, and thus the specimen suspension was ready. […] Then the tubes were placed in a candle jar and cultivated at 37° C. After 24 hours and 48 hours' culture, culture samples were taken respectively from each of the tubes, then the Gram smears of the samples were observed and the pH values of culture samples were tested.

Gram-positive cocci [2] = assay: Experiment Example 2: comparison of saccharides, specimen culture, Gram smear; conditions: 10.0% saccharide, 1.0% yeast extract, 1.6% xanthan gum (dextrin 0.5%, starch none), pH 6.2, candle jar, 37° C.
Description: (§2) • (1)The preparation of the compositions: Different saccharides were used respectively to prepare the following compositions according to the methods mentioned above: glucose, fructose, galactose, mannose, maltose, sucrose, lactose, lactulose, mycose, cellobiose, melibiose, melitose, malto-oligosaccharide, isomaltooligosaccharide and fructooligosaccharide, dextrin, starch, and glycogen: • A. 5% glucose, 1.0% yeast extract, 1.6% xanthan gum, pH adjusted to 6.2; • B. 5% fructose, 1.0% yeast extract, 1.6% xanthan gum, pH adjusted to 6.2; • C. 5% galactose, 1.0% yeast extract, 1.6% xanthan gum, pH adjusted to 6.2; • D. 5% mannose, 1.0% yeast extract, 1.6% xanthan gum, pH adjusted to 6.2; • E. 10.0% maltose, 1.0% yeast extract, 1.6% xanthan gum, pH adjusted to 6.2; • F. 10.0% sucrose, 1.0% yeast extract, 1.6% xanthan gum, pH adjusted to 6.2; • G. 10.0% lactose, 1.0% yeast extract, 1.6% xanthan gum, pH adjusted to 6.2; • H. 10.0% lactulose, 1.0% yeast extract, 1.6% xanthan gum, pH adjusted to 6.2; • I. 10.0% cellobiose, 1.0% yeast extract, 1.6% xanthan gum, pH adjusted to 6.2; • J. 10.0% mycose, 1.0% yeast extract, 1.6% xanthan gum, pH adjusted to 6.2; • K. 10.0% melibiose, 1.0% yeast extract, 1.6% xanthan gum, pH adjusted to 6.2; • L. 10.0% melitose, 1.0% yeast extract, 1.6% xanthan gum, pH adjusted to 6.2; • M. 10.0% maltooligosaccharide, 1.0% yeast extract, 1.6% xanthan gum, pH adjusted to 6.2; • N. 10.0% isomaltooligosaccharide, 1.0% yeast extract, 1.6% xanthan gum, pH adjusted to 6.2; • O. 10.0% fructooligosaccharide, 1.0% yeast extract, 1.6% xanthan gum, pH adjusted to 6.2; • P. 10.0% dextrin, 1.0% yeast extract, 0.5% xanthan gum, pH adjusted to 6.2; • Q. 10.0% starch, 1.0% yeast extract, pH adjusted to 6.2; • R. 10.0% glycogen, 1.0% yeast extract, 1.6% xanthan gum, pH adjusted to 6.2. • (2)The preparation of the test tubes: The compositions prepared above were filled into test tubes, with each tube containing 5 ml, sterilized, and kept until use for experiment. • (3) Specimen suspension: Vaginal secretion was taken from one of the patients suffering from typical bacterial vagmosis with a cotton swab, then the swab was washed in 2 ml sterilized Trypcase-soy Broth immediately, and thus the specimen suspension was ready. […] Then the tubes were placed in a candle jar and cultivated at 37° C. After 24 hours and 48 hours' culture, culture samples were taken respectively from each of the tubes, then the Gram smears of the samples were observed and the pH values of culture samples were tested. […] Meanwhile the pH values in most of the composition tubes decreased to different levels. […] And maltose and sucrose exert better effect in promoting the growth of Gram-positive bacilli and the production of acids than that of the other kinds of oligosaccharides.

Gram-negative bacilli [3] = assay: as above; conditions: 10.0% saccharide, 1.0% yeast extract, 1.6% xanthan gum (dextrin 0.5%, starch none), pH 6.2, candle jar, 37° C.
Description: as §2

Gram-negative cocci [4] = assay: Experiment Example 3: 2.5% maltose or sucrose, specimen culture, Gram smear; conditions: 2.5% saccharide, 1.0% yeast extract, 1.6% xanthan gum, pH 6.2, candle jar, 37° C.
Method: as §1

Gram-positive cocci [5] = assay: as above; conditions: 2.5% saccharide, 1.0% yeast extract, 1.6% xanthan gum, pH 6.2, candle jar, 37° C.
Method: as §1

Gram-positive bacilli [6] = assay: as above; conditions: 2.5% saccharide, 1.0% yeast extract, 1.6% xanthan gum, pH 6.2, candle jar, 37° C.
Method: as §1

Gram-negative bacilli [7] = assay: as above; conditions: 2.5% saccharide, 1.0% yeast extract, 1.6% xanthan gum, pH 6.2, candle jar, 37° C.
Method: as §1

Gram-negative cocci [8] = assay: Experiment Example 4: 17.0% maltose or sucrose, specimen culture, Gram smear; conditions: 17.0% saccharide, 1.0% yeast extract, 1.6% xanthan gum, pH 6.2, candle jar, 37° C.
Method: as §1, with “• (1)The” for “• (1) The”, “composition in” for “composition according to”, “A. 17.0%” for “A. 2.5%”, “B. 17.0%” for “B. 2.5%”, “sucrose, 1.0%” for “sucrose, 1.0”, “Compositions” for “Compositions as”

Gram-positive cocci [9] = assay: as above; conditions: 17.0% saccharide, 1.0% yeast extract, 1.6% xanthan gum, pH 6.2, candle jar, 37° C.
Method: as §1, with “• (1)The” for “• (1) The”, “composition in” for “composition according to”, “A. 17.0%” for “A. 2.5%”, “B. 17.0%” for “B. 2.5%”, “sucrose, 1.0%” for “sucrose, 1.0”, “Compositions” for “Compositions as”

Gram-positive bacilli [10] = assay: as above; conditions: 17.0% saccharide, 1.0% yeast extract, 1.6% xanthan gum, pH 6.2, candle jar, 37° C.
Method: as §1, with “• (1)The” for “• (1) The”, “composition in” for “composition according to”, “A. 17.0%” for “A. 2.5%”, “B. 17.0%” for “B. 2.5%”, “sucrose, 1.0%” for “sucrose, 1.0”, “Compositions” for “Compositions as”

Gram-negative bacilli [11] = assay: as above; conditions: 17.0% saccharide, 1.0% yeast extract, 1.6% xanthan gum, pH 6.2, candle jar, 37° C.
Method: as §1, with “• (1)The” for “• (1) The”, “composition in” for “composition according to”, “A. 17.0%” for “A. 2.5%”, “B. 17.0%” for “B. 2.5%”, “sucrose, 1.0%” for “sucrose, 1.0”, “Compositions” for “Compositions as”

[12] = tested on: vaginal secretion specimen of a patient suffering from typical bacterial vaginosis; assay: Experiment Example 2: pH of culture samples (production of acids); conditions: for pH values in the tube compared with the other tubes: 10% saccharide tube, after 24 or 48 hours culture; for pH, 24 hours-culture / pH, 48 hours-culture: 10.0% saccharide, 1.0% yeast extract, 1.6% xanthan gum (dextrin 0.5%, starch none), pH 6.2, candle jar, 37° C.
Description: as §2

Row | SMILES | pH, 24 hours-culture [1] | pH, 48 hours-culture [1] | Bacteria G + c (Gram-positive cocci), 24 hours-culture (Gram-positive cocci [2]) | Bacteria G + c (Gram-positive cocci), 48 hours-culture (Gram-positive cocci [2]) | Bacteria G − b (Gram-negative bacilli), 24 hours-culture (Gram-negative bacilli [3]) | Bacteria G − b (Gram-negative bacilli), 48 hours-culture (Gram-negative bacilli [3]) | Bacteria G − c (Gram-negative cocci), 24 hours-culture (Gram-negative cocci [4]) | Bacteria G − c (Gram-negative cocci), 48 hours-culture (Gram-negative cocci [4]) | Bacteria G + c (Gram-positive cocci), 24 hours-culture (Gram-positive cocci [5]) | Bacteria G + c (Gram-positive cocci), 48 hours-culture (Gram-positive cocci [5]) | Bacteria G + b (Gram-positive bacilli), 24 hours-culture (Gram-positive bacilli [6]) | Bacteria G + b (Gram-positive bacilli), 48 hours-culture (Gram-positive bacilli [6]) | Bacteria G − b (Gram-negative bacilli), 24 hours-culture (Gram-negative bacilli [7]) | Bacteria G − b (Gram-negative bacilli), 48 hours-culture (Gram-negative bacilli [7]) | Bacteria G − c (Gram-negative cocci), 24 hours culture (Gram-negative cocci [8]) | Bacteria G − c (Gram-negative cocci), 48 hours culture (Gram-negative cocci [8]) | Bacteria G + c (Gram-positive cocci), 24 hours culture (Gram-positive cocci [9]) | Bacteria G + c (Gram-positive cocci), 48 hours culture (Gram-positive cocci [9]) | Bacteria G + b (Gram-positive bacilli), 24 hours culture (Gram-positive bacilli [10]) | Bacteria G + b (Gram-positive bacilli), 48 hours culture (Gram-positive bacilli [10]) | other results
1 | OC[C@H]1O[C@H](O[C@H]2[C@H](O)[C@@H](O)[C@H](O)O[C@@H]2CO)[C@H](O)[C@@H](O)[C@@H]1O [Maltose, maltose] | 7.0 | 6.4 | G + c, ++ (About 10-99 bacteria per field of vision under oil-immersion lens) | G + c, + (1-9 bacteria per field of vision under oil-immersion lens) | G − b, +++ (About 100 bacteria or more per field vision under oil-immersion lens, even uncountable) | G − b, ++ (About 10-99 bacteria per field of vision under oil-immersion lens) | G − c, − (No or less than one bacterium per field of version under oil-immersion lens) | G − c, − (No or less than one bacterium per field of version under oil-immersion lens) | G + c, − (No or less than one bacterium per field of version under oil-immersion lens) | G + c, + (1-9 bacteria per field of vision under oil-immersion lens) | G + b, + (1-9 bacteria per field of vision under oil-immersion lens) | G + b, +++ (About 100 bacteria or more per field vision under oil-immersion lens, even uncountable) | G − b, +++ (About 100 bacteria or more per field vision under oil-immersion lens, even uncountable) | G − b, + (1-9 bacteria per field of vision under oil-immersion lens) | G − c, − (No or less than one bacterium per field of version under oil-immersion lens) | G − c, − (No or less than one bacterium per field of version under oil-immersion lens) | G + c, + (1-9 bacteria per field of vision under oil-immersion lens) | G + c, ++ (About 10-99 bacteria per field of vision under oil-immersion lens) | G + b, +++ (About 100 bacteria or more per field vision under oil-immersion lens, even uncountable) | G + b, ++ (About 10-99 bacteria per field of vision under oil-immersion lens) | Bacteria G − b (Gram-negative bacilli), 24 hours culture (Gram-negative bacilli [11]; 24 hours): G − b, + (1-9 bacteria per field of vision under oil-immersion lens); Bacteria G − b (Gram-negative bacilli), 48 hours culture (Gram-negative bacilli [11]): G − b, ++ (About 10-99 bacteria per field of vision under oil-immersion lens); pH values in the tube compared with the other tubes [12]: lower than that of the other tubes; pH, 24 hours-culture [12]: 4.6-48; pH, 48 hours-culture [12]: 4.4-4.6
2 | OC[C@H]1O[C@@](CO)(O[C@H]2O[C@H](CO)[C@@H](O)[C@H](O)[C@H]2O)[C@@H](O)[C@@H]1O [Sucrose, sucrose] | 6.2 | 6.7 | G + c, + (1-9 bacteria per field of vision under oil-immersion lens) | G + c, + (1-9 bacteria per field of vision under oil-immersion lens) | G − b, + (1-9 bacteria per field of vision under oil-immersion lens) | G − b, ++ (About 10-99 bacteria per field of vision under oil-immersion lens) | G − c, − (No or less than one bacterium per field of version under oil-immersion lens) | G − c, − (No or less than one bacterium per field of version under oil-immersion lens) | G + c, + (1-9 bacteria per field of vision under oil-immersion lens) | G + c, + (1-9 bacteria per field of vision under oil-immersion lens) | G + b, + (1-9 bacteria per field of vision under oil-immersion lens) | G + b, + (1-9 bacteria per field of vision under oil-immersion lens) | G − b, + (1-9 bacteria per field of vision under oil-immersion lens) | G − b, ++ (About 10-99 bacteria per field of vision under oil-immersion lens) | G − c, − (No or less than one bacterium per field of version under oil-immersion lens) | G − c, − (No or less than one bacterium per field of version under oil-immersion lens) | G + c, + (1-9 bacteria per field of vision under oil-immersion lens) | G + c, ++ (About 10-99 bacteria per field of vision under oil-immersion lens) | G + b, ++ (About 10-99 bacteria per field of vision under oil-immersion lens) | G + b, ++ (About 10-99 bacteria per field of vision under oil-immersion lens) | Bacteria G − b (Gram-negative bacilli), 48 hours culture (Gram-negative bacilli [11]): G − b, ++ (About 10-99 bacteria per field of vision under oil-immersion lens); pH values in the tube compared with the other tubes [12]: lower than that of the other tubes; pH, 24 hours-culture [12]: 4.8-5.1; pH, 48 hours-culture [12]: 4.6-4.8

From patent US6964949B2, “Pharmaceutical compositions for promoting the growth of gram-positive bacilli and increasing the acidity in the vagina and the use thereof” (Shanghai Jiao Da Onlly Co., Ltd., priority 2000, dated 2005)
